According to patent publication US8202998B2, “Salts of benzimidazolyl pyridyl ethers and formulations thereof” (Novartis AG, priority 2006, dated 2012):

Experiments:
[1] = Determination of solubility at 25° C.; type: physicochemical; details: for solubility: thermodynamic from solid
Procedure: Excess solids were equilibrated in each solvent for over 24 hours at 25° C.±0.1. Concentration in aqueous supernatant was measured by UV and HPLC and concentrations in organic solvents by gravimetry.

[2] = Stability: degradation products (DP) and appearance (color) under stress conditions; type: physicochemical; design: key to CL: A: No change of color; B: Slight discoloration; C: Medium discoloration; D: Strong discoloration; ↓: Suspension; *: Clear solution after stress test; —: no change; x: test not performed
Procedure: Column: Symmetry C18 (Waters), 3.5 μm, 3×150 mm
Mobile phase: A=0.1% TFA in water; B=acetonitrile
Gradient: 20 to 100% B in 10 minutes
Column temperature: 40° C.
Stability of the three salts with respect to color and degradation products were assessed under various conditions.

[3] = Effect of grinding on morphic properties; type: physicochemical
[4] = Thermogravimetry / loss on drying; type: physicochemical; details: for Loss on drying by TG: As is, maleate
[5] = Polymorphism behavior: crystal modification after 24 hours equilibration; type: physicochemical
Procedure: A suspension of 6 mg of drug substance in 300 μl of solvent is prepared. Samples are agitated for ≧24 hour at 22° C.±2° C. The solids are collected and investigated for changes.

[6] = pH of 1% solution or suspension; type: physicochemical; details: In water
[7] = Intrinsic dissolution rate; type: physicochemical; details: 37° C.
Procedure: The intrinsic dissolution rate measurements were carried out in 0.5 cm^2 VanKel die assemblies and a pellet pressure of 1 ton. The dissolution was measured using a Cary 50 spectrophotometer with a stirring rate of 200 rpm. The solution medium was held at 37° C. and measurements were made at 276 nm.

[8] = Aqueous solubility of salts in deionized water
[9] = Bioavailability study of API and salts of API in dogs; type: in vivo, beagle dogs; details: single 100 mg oral dose
Procedure: For comparison, a microemulsion of the free base was also studied. The study was performed with 4 dogs, weighing 9-15 kg each. A crossover design with a washout period of at least 1 week was used. The dogs were given a single oral dose of 100 mg of test compound, administered under fasting conditions.

[10] = Hygroscopicity (sorption/desorption); type: physicochemical
Procedure: Sorption/desorption isotherms were measured using VTI vapor sorption device (DVS-1). Measurements were carried out at 25° C.

[11] = 0.1% solutions or suspensions, 1 week 80° C. or 50° C., Methanol
[12] = 0.1% solutions or suspensions, 1 week 80° C. or 50° C., Water
[13] = 1-2 weeks 50° C., tight container, 1% in mixture 1
[14] = 1-2 weeks 50° C., tight container, 1% in mixture 2
[15] = 1-2 weeks 50° C./75% r.h., 1% in mixture 1
[16] = 1-2 weeks 50° C./75% r.h., 1% in mixture 2
[17] = Solid stage, 1 week 80° C., tight container, Bulk (HPLC)
[18] = Xenon light (approx. 1200 kLuxh), Bulk (HPLC)
[19] = deionized water, water, thermodynamic from solid
[20] = beagle, dog, plasma, fasting, mean and sd

Cn1c(Nc2ccc(C(F)(F)F)cc2)nc2cc(Oc3ccnc(-c4ncc(C(F)(F)F)[nH]4)c3)ccc21.O=C(O)/C=C\C(=O)O [Maleate, {1-methyl-5-[2-(5-trifluoromethyl-1H-imidazol-2-yl)-pyridin-4-yloxy]-1H-benzoimidazol-2-yl}-(4-trifluoromethyl-phenyl)amine maleate]
solubility ([1]; 0.1N HCl, 25 °C, simulated gastric fluid, read-out: Solubility (approx. at 25° C.) (HPLC)): 2300 µg/mL
solubility ([1]; acetonitrile, 25 °C, organic solvent or mixture, read-out: Solubility (approx. at 25° C.)): 4700 µg/mL
solubility ([1]; aqueous medium at pH 3, 25 °C, pH 3, aqueous buffer, read-out: Solubility (approx. at 25° C.) (HPLC)): 0.15 µg/mL
solubility ([1]; aqueous medium at pH 4.5, 25 °C, pH 4.5, aqueous buffer, read-out: Solubility (approx. at 25° C.) (HPLC)): 0.03 µg/mL
Solid ([1]; line after Water under Solubility): No change
solubility ([1]; methanol, 25 °C, organic solvent or mixture, read-out: Solubility (approx. at 25° C.)): > 50000 µg/mL
Measured pH ([1]; solubility sample at pH 3): 3.4
Measured pH ([1]; solubility sample in 0.1N HCl): 1.4
Aqueous solubility (in words) ([1]; summary of Table 8): higher at low pH and lower in neutral conditions
solubility ([1]; water, 25 °C, water, read-out: Solubility (approx. at 25° C.) (HPLC)): 10 µg/mL
CL [2, 11]: A
DP [2, 11]: 0.4%
CL [2, 12]: A↓
DP [2, 12]: 0.3%
CL [2, 13]: A
DP [2, 13]: 0.4%
CL [2, 14]: A
DP [2, 14]: 0.4%
CL [2, 15]: A
DP [2, 15]: 1.1%
CL [2, 16]: A
DP [2, 16]: 0.5%
Stability in methanol (in words) ([2]; In methanol): stable
CL [2, 17]: A
DP [2, 17]: 0.7%
DP ([2]; Solid state, 1 week 80° C./175% r.h, Bulk (HPLC)): 0.4%
CL ([2]; Solid state, 1 week 80° C./, Bulk (HPLC)): A
DP ([2]; Unstressed): 0.3%
CL [2, 18]: A
DP [2, 18]: 0.3%
Effect of grinding [3]: No change
Loss on drying by TG ([4]; listed as maleate): 0.1%
Loss on drying by TG [4]: 0.11%
Thermogravimetry (weight loss in %) ([4]; Heating rate 20 K/min): 0.11%
Crystal modification after 24 hours equilibration (DSC/XRPD/TG) ([5]; 2-propanol): No change
Crystal modification after 24 hours equilibration (DSC/XRPD/TG) ([5]; Acetone): Change
Crystal modification after 24 hours equilibration (DSC/XRPD/TG) ([5]; Acetonitrile): Change
Crystal modification after 24 hours equilibration (DSC/XRPD/TG) ([5]; Ethanol): No change
Crystal modification after 24 hours equilibration (DSC/XRPD/TG) ([5]; Ethyl acetate): Change
Crystal modification after 24 hours equilibration (DSC/XRPD/TG) ([5]; Methanol): Change
Crystal modification after 24 hours equilibration (DSC/XRPD/TG) ([5]; PEG400): Change
Crystal modification after 24 hours equilibration (DSC/XRPD/TG) ([5]; Water): No change
pH of 1% solution or suspension [6]: 2.7
Intrinsic dissolution rate ([7]; HCl 0.1N): 0.03 mg min^−1 cm^−2
Intrinsic dissolution rate ([7]; Water): 0.0076 mg min^−1 cm^−2
solubility [8, 19]: 17 µg/mL
solubility at 48 h [8, 19]: 96 µg/mL
pH ([8]; pH of the saturated aqueous solutions): 2.415
AUC(0-inf) [9, 20]: 29600 ± 5920 ng·h/mL
Cmax [9, 20]: 1220 ± 320 ng/mL
half-life [9, 20]: 18.8 ± 7.7 h
Tmax ([9]; beagle, dog, plasma, fasting, median): 4 h
Tlag ([9]; fasting, median): 0.12 h
Absolute F ([9]; relative to an iv dose of 1.25 mg/kg): 12.9 ± 2.6
Hygroscopicity from moisture sorption profiles (in words) [10]: slightly hygroscopic
Hygroscopicity: After 1 day at 80% r.h. ([10]; 80% r.h., 1 day, 25° C.): 0.8
Hygroscopicity: After 1 day at 95% r.h. ([10]; 95% r.h., 1 day, 25° C.): 1.1
